The molecules below were run on AMP-activated protein kinase (AMPK) (assay: p-AMPK expression level in L6 cell line by Western blot). Details: L6 cells, 2 hours compound treatment.
Assay type: cell-based
Description: (§1) Evaluation of p-AMPK and p-ACC expression level in L6 cell line by Western-Blot
(§2) This method evaluates the changes of AMP-activated protein kinase (AMPK) and ACC (acetyl-CoA carboxylase) activity by small molecular modulators through detecting the level of p-AMPK and p-ACC proteins in L6 cells using Western blot.
(§3) L6 cells are maintained in DMEM medium supplemented with 10% FBS in 10-cm dishes. Prior to compounds treatment, L6 cells are seeded in 12-well-plates at concentration of 3×10^4 cells per well. After 24 hours of incubation in 12-well plates, L6 cells are differentiated by replacing the 10% FBS-DMEM medium with 2% FBS-DMEM. Differentiation usually takes 5 days, during which the culture medium is changed every 2 days.
(§4) The compound concentrations typically range from 32 μM to 0.5 μM with 2-fold dilution in 2 ml DMEM and 7 doses. The final DMSO concentration is 0.4%. Berberine is used as a positive control at concentration of 16 μM. Before compound treatment, starve L6 cells for 2 hours by replacing the medium with DMEM, and then gently aspirate the media from each well. Add the compounds into the plates and incubate at 37 degree 5% CO2 for 2 hours.
(§5) Prepare lysis buffer (RIPA buffer with protease-inhibitors and phosphorate-inhibitors) and place it on ice. After two hour's compound treatment, aspirate the medium from 12-well plates, add 70 ul lysis buffer to each well and keep the plates on ice for 5 min. Then scrape the cell lysate off the plates and transfer it to 1.5 ml eppendorf tubes. Keep the tube on ice for more 10 min, centrifugate the lysate at 13000 rpm, 4 degrees for 15 min and transfer the supernatant to clean tubes.
(§6) Determine protein concentration for each sample using Quickstart Bradford protein quantitation kit. Mix 20 ug protein sample with 4 times loading buffer, heat them at 100° C. for 5 min, store the sample in −80° C. or perform Western blot assay directly. For Western blot assay, load 20 ug samples and 10 ul Pre-stained Protein Maker into 4-12% SDS-PAGE gradient gel. Run the samples at 100 V in the stacking gel and at 120 V in resolving gel until the Bromophenol dye reaches the bottom. Transfer the electrophoresed proteins to a PVDF membrane using Bio-Rad's Transblot for 120 min at 300 mA. Following the completion of transfer, the membrane is blocked with 5% non-fat milk for 2 hours at room temperature before incubated with primary antibody (p-AMPK and p-ACC) at 4° C. overnight. On the next day wash the membrane twice with TBST, add secondary antibody and incubate for 1 hour at room temperature. Wash the membrane twice with TBST. Develop p-AMPK and p-ACC protein expression level on the film in dark room with Amersham ECL plus kit. The bands of each sample are quantitated by Bio-Rad system, The AC1.3 value is analyzed using Prism 5.0.

Row | SMILES | Activity AC1.3 (AMPKp)
1 | CN1CCN(c2cccc(C3CC(C)(C)c4cccc(C(=O)NS(C)(=O)=O)c4N3)c2)CC1 (centres unmarked) [Example 67, N-{4,4-dimethyl-2-[3-(4-methyl-piperazin-1-yl)-phenyl]-1,2,3,4-tetrahydro-quinoline-8-carbonyl}-methanesulfonamide] | 0.02 µM
2 | Cc1ccc(N2CCN(c3cccc(C4CC(C)(C)c5cc(F)cc(C(=O)NS(C)(=O)=O)c5N4)c3)CC2)cc1 (centres unmarked) [Example 68, N-{6-fluoro-4,4-dimethyl-2-[3-(4-p-tolyl-piperazin-1-yl)-phenyl]-1,2,3,4-tetrahydro-quinoline-8-carbonyl}-methanesulfonamide] | 0.003 µM

Each molecule was assayed on ACC (acetyl-CoA carboxylase) (assay: p-ACC expression level in L6 cell line by Western blot). Details: Rattus norvegicus, L6 cells, 2 hours compound treatment, read-out: Activity AC1.3 (ACCp).
Assay type: cell-based
Description: as §1, §2, §3, §4, §5, §6

Row | SMILES | EC (1.3-fold)
3 | CC1(C)CC(c2cccc(N3CCNCC3)c2)Nc2ccc(S(=O)(=O)N3CCOCC3)cc21 (centres unmarked) [Example 14, 4,4-Dimethyl-6-(morpholine-4-sulfonyl)-2-(3-piperazin-1-yl-phenyl)-1,2,3,4-tetrahydro-quinoline] | 4.7 µM
4 | CC(C)Oc1ccc(-c2cccc(C3CC(C)(C)c4cc(C(=O)NS(C)(=O)=O)ccc4N3)c2)cc1 (centres unmarked) [Example 45, N-[2-(4′-isopropoxy-biphenyl-3-yl)-4,4-dimethyl-1,2,3,4-tetrahydro-quinoline-6-carbonyl]-methanesulfonamide] | < 8 µM
5 | CC(C)NS(=O)(=O)c1ccc2c(c1)C(C)(C)CC(c1cccc(N3CCOCC3)c1)N2 (centres unmarked) [Example 13, 4,4-Dimethyl-2-(3-morpholin-4-yl-phenyl)-1,2,3,4-tetrahydro-quinoline-6-sulfonic acid isopropylamide] | 0.4 µM
6 | CC1(C)CC(c2cc(F)cc(N3CCOCC3)c2)Nc2ccc(C(=O)NS(=O)(=O)C3CC3)cc21 (centres unmarked) [Example 6, Cyclopropanesulfonic acid [2-(3-fluoro-5-morpholin-4-yl-phenyl)-4,4-dimethyl-1,2,3,4-tetrahydro-quinoline-6-carbonyl]-amide] | 3.5 µM
7 | CC(C)Oc1ccc(-c2cccc(C3CC(C)(C)c4cc(C(=O)NS(=O)(=O)C5CC5)ccc4N3)c2)cc1 (centres unmarked) [Example 46, Cyclopropanesulfonic acid [2-(4′-isopropoxy-biphenyl-3-yl)-4,4-dimethyl-1,2,3,4-tetrahydro-quinoline-6-carbonyl]-amide] | < 8 µM
8 | CC1(C)CC(c2cccc(N3CCOCC3)c2)Nc2ccc(C(=O)NS(=O)(=O)C3CC3)cc21 (centres unmarked) [Example 1, Cyclopropanesulfonic acid [4,4-dimethyl-2-(3-morpholin-4-yl-phenyl)-1,2,3,4-tetrahydro-quinoline-6-carbonyl]-amide] | 1.4 µM
9 | CN(C(=O)c1ccc2c(c1)C(C)(C)CC(c1cccc(N3CCOCC3)c1)N2)S(=O)(=O)C1CC1 (centres unmarked) [Example 75, Cyclopropanesulfonic acid [4,4-dimethyl-2-(3-morpholin-4-yl-phenyl)-1,2,3,4-tetrahydro-quinoline-6-carbonyl]-methyl-amide] | 0.3 µM
10 | CC1(C)CC(c2cccc(N3CCOCC3)c2)Nc2c(C(=O)NS(C)(=O)=O)cc(Cl)cc21 (centres unmarked) [Example 62, N-[6-chloro-4,4-dimethyl-2-(3-morpholin-4-yl-phenyl)-1,2,3,4-tetrahydro-quinoline-8-carbonyl]-methanesulfonamide] | 68 µM
11 | CC(C)(C)c1ccc(-c2cccc(C3CC(C)(C)c4cc(C(=O)NS(C)(=O)=O)ccc4N3)c2)cc1 (centres unmarked) [Example 39, N-[2-(4′-tert-butyl-biphenyl-3-yl)-4,4-dimethyl-1,2,3,4-tetrahydro-quinoline-6-carbonyl]-methanesulfonamide] | 1.4 µM
12 | CC1(C)CC(c2cccc(N3CCOCC3)c2)Nc2c(C(=O)NS(C)(=O)=O)cccc21 (centres unmarked) [Example 10, N-[4,4-dimethyl-2-(3-morpholin-4-yl-phenyl)-1,2,3,4-tetrahydro-quinoline-8-carbonyl]-methanesulfonamide] | < 0.2 µM
13 | CC1(C)CC(c2cccc(N3CCOCC3)c2)Nc2cc(C(=O)NS(C)(=O)=O)ccc21 (centres unmarked) [Example 55, N-[4,4-dimethyl-2-(3-morpholin-4-yl-phenyl)-1,2,3,4-tetrahydro-quinoline-7-carbonyl]-methanesulfonamide] | 0.7 µM
14 | CC1(C)CC(c2cccc(N3CCN(c4ccccc4F)CC3)c2)Nc2c(C(=O)NS(=O)(=O)C3CC3)cc(F)cc21 (centres unmarked) [Example 60, Cyclopropanesulfonic acid (6-fluoro-2-{3-[4-(2-fluoro-phenyl)-piperazin-1-yl]-phenyl}-4,4-dimethyl-1,2,3,4-tetrahydro-quinoline-8-carbonyl)-amide] | 7.33 µM
15 | CC(C)S(=O)(=O)NC(=O)c1ccc2c(c1)C(C)(C)CC(c1cccc(N3CCOCC3)c1)N2 (centres unmarked) [Example 9, Propane-2-sulfonic acid [4,4-dimethyl-2-(3-morpholin-4-yl-phenyl)-1,2,3,4-tetrahydro-quinoline-6-carbonyl]-amide] | 4.5 µM
16 | CCc1ccc(N2CCOCC2)cc1C1CC(C)(C)c2cc(C(=O)NS(=O)(=O)C3CC3)ccc2N1 (centres unmarked) [Example 47, Cyclopropanesulfonic acid [2-(2-ethyl-5-morpholin-4-yl-phenyl)-4,4-dimethyl-1,2,3,4-tetrahydro-quinoline-6-carbonyl]-amide] | 62.4 µM
17 | CC1(C)CC(c2cccc(C(F)(F)F)c2)Nc2ccc(C(=O)NS(C)(=O)=O)cc21 (centres unmarked) [Example 30, N-[4,4-dimethyl-2-(3-trifluoromethyl-phenyl)-1,2,3,4-tetrahydro-quinoline-6-carbonyl]-methanesulfonamide] | 0.002 µM
18 | CC1(C)CC(c2cccc(N3CCOC3=O)c2)Nc2c(C(=O)NS(=O)(=O)C3CC3)cc(Cl)cc21 (centres unmarked) [Example 65, Cyclopropanesulfonic acid {6-chloro-4,4-dimethyl-2-[3-(2-oxo-oxazolidin-3-yl)-phenyl]-1,2,3,4-tetrahydro-quinoline-8-carbonyl}-amide] | 12.8 µM
19 | CC1(C)CC(c2cccc(C(F)(F)F)c2)Nc2ccc(C(=O)NS(=O)(=O)C3CC3)cc21 (centres unmarked) [Example 31, Cyclopropanesulfonic acid [4,4-dimethyl-2-(3-trifluoromethyl-phenyl)-1,2,3,4-tetrahydro-quinoline-6-carbonyl]-amide] | 2 µM
20 | CC(C)(C)c1ccc(-c2cncc(C3CC(C)(C)c4cc(C(=O)NS(C)(=O)=O)ccc4N3)c2)cc1 (centres unmarked) [Example 73, N-{2-[5-(4-tert-butyl-phenyl)-pyridin-3-yl]-4,4-dimethyl-1,2,3,4-tetrahydro-quinoline-6-carbonyl}-methanesulfonamide] | 0.1 µM
21 | CC1(C)CC(c2cccc(-c3nnnn3C3CC3)c2)Nc2ccc(C(=O)NS(=O)(=O)C3CC3)cc21 (centres unmarked) [Example 41, Cyclopropanesulfonic acid {2-[3-(1-cyclopropyl-1H-tetrazol-5-yl)-phenyl]-4,4-dimethyl-1,2,3,4-tetrahydro-quinoline-6-carbonyl}-amide] | 1.16 µM
22 | CCCS(=O)(=O)NC(=O)c1ccc2c(c1)C(C)(C)CC(c1ccc(F)c(Cl)c1)N2 (centres unmarked) [Example 8, Propane-1-sulfonic acid [2-(3-chloro-4-fluoro-phenyl)-4,4-dimethyl-1,2,3,4-tetrahydro-quinoline-6-carbonyl]-amide] | < 32 µM
23 | CC1(c2ccccc2)CC(c2ccc(F)c(Cl)c2)Nc2ccc(C(=O)NS(C)(=O)=O)cc21 (centres unmarked) [Example 7, N-[2-(3-chloro-4-fluoro-phenyl)-4-methyl-4-phenyl-1,2,3,4-tetrahydro-quinoline-6-carbonyl]-methanesulfonamide] | < 16 µM

— patent US8809369B2, “Tetrahydroquinoline derivatives” (Hoffmann-La Roche Inc., priority 2011, dated 2014)
